Assay results as given in patent US20160333419A1, “GENE SIGNATURES ASSOCIATED WITH SENSITIVITY TO MDM2 INHIBITORS” (DAIICHI SANKYO COMPANY, LIMITED, priority 2014, published 2016).

Experiments:
CTG-0069 Colorectal = assay: Champions TumorGraft model, tumor growth inhibition; format: in vivo, mice; details: 100 mg/kg/dose p.o./qd × 10, TGI evaluation Day 11
Description: (§1) Patient-derived xenograft models (Champions TumorGraftTM; Champions Oncology, Inc., Hackensack, N.J.) were used. Champions TumorGraftsTM provide a highly focused, accelerated translational platform, which is based upon the implantation of primary human tumors in immune-deficient mice followed by propagation of the resulting low-passage Champions TumorGraftsTM in a manner that preserves the biological characteristics of the original human tumor. […] The TumorGraftsTM models allow a comparison of gene expression analysis of patients' cancer samples and Champions TumorGraftTM samples by microarray expression analysis. Large numbers (e.g., 30,000) of genes are analyzed. […] Female immunocompromised nu/nu mice (Harlan) between 6-9 weeks of age were housed on irradiated […]-enriched 1⁄8'' corncob bedding ([…]) in individual HEPA ventilated cages (Innocage® IVC, Innovive USA) and were kept on a 12-hour light-dark cycle at 68-74° F. (20-23° C.) and 30-70% humidity. Animals were fed water ad libitum (reverse osmosis, 2 ppm C12) and an irradiated Test rodent diet (Teklad 2919) consisting of 19% protein, 9% fat, and 4% fiber. Animals were implanted bilaterally in the flank region with tumor fragments harvested from tumored host animals, each implanted from a specific passage lot. Pre-study tumor volumes were recorded for each experiment beginning approximately one week prior to its estimated start date. When tumors reached approximately 125-250 mm^3, animals were matched by tumor volume into treatment and control groups, and dosing was initiated (Day 0). Animals in all studies were tagged and followed individually throughout the experiment. Initial dosing for standard agents began on Day 0; animals in all groups were dosed by weight (0.01 ml per gram; 10 ml/kg). Dose concentration(s), route(s) of administration and schedule(s) for each group are listed in the Experimental Design section, wherein “p.o./qd×10” indicates orally (by mouth) daily for 10 days. The experimental design of the human tumor graft model study is presented below in Table 4. “n” indicates the number of animals per group; “ROA” indicates route of administration of the test agent, i.e., the MDM2i drug. Beginning on Day 0, tumor dimensions were measured twice weekly by digital caliper and data including individual and mean estimated tumor volumes (Mean TV±SEM) were recorded for each group. Tumor volume was calculated using the formula (1): TV=width^2×length×0.52. At study completion, percent tumor growth inhibition (% TGI) values were calculated and reported for each treatment group (T) versus control (C) using initial (i) and final (f) tumor measurements and the formula (2): % TGI=1-Tf-Ti/Cf-C. The tumor growth inhibition (TGI) values on the scheduled dates closest to the last administration are summarized Table 5 below. In this example, the study duration was defined by the tumor size of the vehicle control. In some cases, for example, that of CTG-0213 in Table 5, required a longer time period for the tumor to reach a threshold size. As a result, the test animals treated with the MDM2i Compound B were also left for a longer time period, e.g., 40 days in the case of CTG-0213, without MDM2i treatment. […] Thus, the evaluation of TGI was set to be near the end of the treatment period, such as around Day 7-11 (around Day 9).

CTG-0500 Melanoma = assay: as above; format: in vivo, mice; details: 100 mg/kg/dose p.o./qd × 10, TGI evaluation Day 7
Description: as §1

CTG-0093 Colorectal = assay: as above; format: in vivo, mice; details: 100 mg/kg/dose p.o./qd × 10, TGI evaluation Day 9
Description: as §1

CTG-0213 Melanoma = assay: as above; format: in vivo, mice; details: 100 mg/kg/dose p.o./qd × 10, TGI evaluation Day 7
Description: as §1

CTG-0204 Melanoma = assay: as above; format: in vivo, mice; details: 100 mg/kg/dose p.o./qd × 10, TGI evaluation Day 10
Description: as §1

CTG-0292 Pancreatic = assay: as above; format: in vivo, mice; details: 100 mg/kg/dose p.o./qd × 10, TGI evaluation Day 11
Description: as §1

CTG-0501 Melanoma = assay: as above; format: in vivo, mice; details: 100 mg/kg/dose p.o./qd × 10, TGI evaluation Day 11
Description: as §1

CTG-0203 Melanoma = assay: as above; format: in vivo, mice; details: 100 mg/kg/dose p.o./qd × 10, TGI evaluation Day 11
Description: as §1

OE19 = assay: OncoPanel cytotoxicity assay; format: cell-based; details: Homo sapiens, 72 hour incubation
How it was run: (§2)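 Cells grown in RPMI 1640 with 10% FBS (or a special medium) at 37° C, 5% CO2 were treated 24 hours after seeding for 72 hours with 10 concentrations (3.16-fold dilutions, 0.1% DMSO final). Nuclei were dye-stained and imaged; IC50 was fit from percent of control relative cell count.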

NCI-H69 = assay: OncoPanel cytotoxicity assay; format: cell-based; details: Homo sapiens, 72 hour incubation
How it was run: as §2

OE33 = assay: OncoPanel cytotoxicity assay; format: cell-based; details: Homo sapiens, 72 hour incubation
How it was run: as §2

BT-483 = assay: OncoPanel cytotoxicity assay; format: cell-based; details: Homo sapiens, 72 hour incubation
How it was run: as §2

MDA-MB-175-VII = assay: OncoPanel cytotoxicity assay; format: cell-based; details: Homo sapiens, 72 hour incubation
How it was run: as §2

T84 = assay: OncoPanel cytotoxicity assay; format: cell-based; details: Homo sapiens, 72 hour incubation
How it was run: as §2

ZR-75-1 = assay: OncoPanel cytotoxicity assay; format: cell-based; details: Homo sapiens, 72 hour incubation
How it was run: as §2

IMR-32 = assay: OncoPanel cytotoxicity assay; format: cell-based; details: Homo sapiens, 72 hour incubation
How it was run: as §2

For `CC1(C)CCC2(CC1)N[C@@H](C(=O)N[C@@H]1CC[C@@H](C(N)=O)OC1)[C@H](c1ccnc(Cl)c1F)[C@]21C(=O)Nc2cc(Cl)ccc21` [Compound B, (3′R,4′S,5′R)—N-[(3R,6S)-6-carbamoyltetrahydro-2H-pyran-3-yl]-6″-chloro-4′-(2-chloro-3-fluoropyridin-4-yl)-4,4-dimethyl-2″-oxo-1″,2″-dihydrodispiro[cyclohexane-1,2′-pyrrolidine-3′,3″-indole]-5′-carboxamide], the “% TGI” value (CTG-0069 Colorectal) was 19%, the “% TGI” value (CTG-0500 Melanoma) was 104% and the “% TGI” value (CTG-0093 Colorectal) was 53%. The “% TGI” value (CTG-0213 Melanoma) was 87%, the “% TGI” value (CTG-0204 Melanoma) was 51% and the “% TGI” value (CTG-0292 Pancreatic) was 54%. For the same molecule, the “% TGI” value (CTG-0501 Melanoma) was 101%, the “% TGI” value (CTG-0203 Melanoma) was 98% and the IC50 (OE19) was over 10 µM. The IC50 (NCI-H69) was over 10 µM and the IC50 (OE33) was 7.58 µM.
`CC[C@@H]1CNC2(CC2)CN1C(=O)[C@@H]1C[C@@H](F)CN1C(=O)C1=C(C(C)C)N2C(=N[C@@](C)(c3ccc(Cl)nc3)[C@H]2c2ccc(Cl)c(F)c2)S1` [Compound A, [(5R,6S)-5-(4-Chloro-3-fluorophenyl)-6-(6-chloropyridin-3-yl)-6-methyl-3-(propan-2-yl)-5,6-dihydroimidazo[2,1-b][1,3]thiazol-2-yl][(2S,4R)-2-{[(6R)-6-ethyl-4,7-diazaspiro[2.5]oct-7-yl]carbonyl}-4-fluoropyrrolidin-1-yl]methanone] showed an IC50 (BT-483) of 13.2 µM, an IC50 (MDA-MB-175-VII) of over 40 µM and an IC50 (T84) of over 40 µM. For the same molecule, the IC50 (ZR-75-1) was 1.5 µM and the IC50 (IMR-32) was 0.828 µM.
